Numbered stars: 1 amine (or outer) side, 2 acyl side, 3 side chain; on linkers, the order of the positions; unused ones are H or OH. Bridge positions count the residues as written; N and C are the ends. Square brackets hold non-standard residues; d marks the D form. Peptide text beside a SMILES is read from it. * marks the point of attachment. Bip = N[C@@H](Cc1ccc(-c2ccccc2)cc1)C(=O)O; Phe(4-NH2) = Nc1ccc(C[C@H](N)C(=O)O)cc1; d(β3hF) = N[C@@H](CC(=O)O)Cc1ccccc1; dNMeF = CN[C@H](Cc1ccccc1)C(=O)O; d2Thi = N[C@H](Cc1cccs1)C(=O)O; Suc = O=C(CCC(=O)[*:2])[*:1]; OtBu = CC(C)(C)O*
Target: T1, TNFα / TNFα receptor (TNFα R1/Fc) (Homo sapiens, UniProt P01375)
T1 construct: purchased R&D Systems
Test: Inhibition of binding of TNFα to the TNFα receptor (plate ELISA competition)
Details: Table 2; read-out: Activity (IC50, inhibition of TNFα binding to TNFα R1/Fc)
Experimental: The compounds listed in Table 2 below were assayed for ability to inhibit binding of TNFα to the TNFα receptor (TNFα R1/Fc). The assays were performed as described in the following procedure: TNFα (R&D Systems) was coated on high binding plate wells (Corning 96-well) at a single uniform concentration of 15 nM, 100 μL/well in PBS. The coating proceeded for 30 minutes at 37° C. then 10 minutes at 4° C. The coated plate was washed with PBST, then 250 μL/well of blocking solution (PBST 0.1% BSA, bovine serum albumin) was added and incubation proceeded for 30-45 minutes at room temperature with agitation. The solution phase competition proceeded separately with the dilutions of test compound in PBST (phosphate buffered saline with Tween 20), 2% DMSO in a polypropylene plate (Corning 96-well storage plate) with a single concentration, 8.33 nM of the high affinity receptor for TNFα (R&D Systems). This solution phase incubation proceeded for 30 minutes at room temperature with agitation and was then added to the washed TNFα coated assay plate, 100 μL/well, and was incubated for a further 30 minutes at room temperature with agitation. The assay plate was washed and 100 μL goat anti-human IgG (Fc) HRP labeled antibody in PBST, 13 pM, (KPL Cat#04-10-2) was added to each well. This incubation proceeded for 25-30 minutes at room temperature with agitation. Following this incubation step, the plate was washed and a 100 μL TMB solution (SUREBLUE™ TMB Peroxidase substrate, KPL) was added per well and allowed to stand approximately 3-5 minutes for development. The TMB reaction was stopped with the addition of 0.5N HCl and then the plate was read for absorbance at 450 nm.

T1 sequence (P01375 77-233 limits assumed, species assumed): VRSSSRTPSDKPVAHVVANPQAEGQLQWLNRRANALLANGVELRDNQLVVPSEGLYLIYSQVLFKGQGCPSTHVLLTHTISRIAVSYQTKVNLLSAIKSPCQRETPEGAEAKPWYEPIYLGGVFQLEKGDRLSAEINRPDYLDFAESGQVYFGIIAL

SMILES	IC50 [µM]
O=C1CCC(=O)N[C@H](Cc2cccs2)C(=O)N[C@@H](Cc2ccc(-c3ccccc3)cc2)C(=O)N[C@H](Cc2ccccc2)CC(=O)N[C@H](C(=O)O)Cc2ccc(cc2)N1 [Compound 56] ([d2Thi][Bip][d(β3hF)][Phe(4-NH2)]-OH; linker N-4 via Suc)	> 100
CN1C(=O)[C@H](Cc2ccc(-c3ccccc3)cc2)NC(=O)[C@@H](Cc2cccs2)NC(=O)CCC(=O)Nc2ccc(cc2)C[C@@H](C(=O)O)NC(=O)[C@H]1Cc1ccccc1 [Compound 57] ([d2Thi][Bip][dNMeF][Phe(4-NH2)]-OH; linker N-4 via Suc)	> 100
O=C1CCC(=O)N[C@H](Cc2cccs2)C(=O)N[C@@H](Cc2ccc(-c3ccccc3)cc2)C(=O)N[C@@H](Cc2ccc(O)cc2)C(=O)N[C@H](C(=O)O)Cc2ccc(cc2)N1 [Compound 58] ([d2Thi][Bip]Y[Phe(4-NH2)]-OH; linker N-4 via Suc)	> 100
O=C1CCC(=O)N[C@H](Cc2cccs2)C(=O)N[C@@H](Cc2ccc(-c3ccccc3)cc2)C(=O)N[C@H](Cc2ccc(O)cc2)C(=O)N[C@H](C(=O)O)Cc2ccc(cc2)N1 [Compound 59] ([d2Thi][Bip][dY][Phe(4-NH2)]-OH; linker N-4 via Suc)	> 100
CC(C)(C)OC(=O)C[C@@H]1NC(=O)[C@H](Cc2ccc(-c3ccccc3)cc2)NC(=O)[C@@H](Cc2cccs2)NC(=O)CCC(=O)Nc2ccc(cc2)C[C@@H](C(=O)O)NC1=O [Compound 62] ([d2Thi][Bip]D(OtBu)[Phe(4-NH2)]-OH; linker N-4 via Suc)	> 100
CC(C)(C)OC(=O)C[C@H]1NC(=O)[C@H](Cc2ccc(-c3ccccc3)cc2)NC(=O)[C@@H](Cc2cccs2)NC(=O)CCC(=O)Nc2ccc(cc2)C[C@@H](C(=O)O)NC1=O [Compound 63] ([d2Thi][Bip][dD](OtBu)[Phe(4-NH2)]-OH; linker N-4 via Suc)	> 100
CC(C)(C)OC(=O)CC[C@@H]1NC(=O)[C@H](Cc2ccc(-c3ccccc3)cc2)NC(=O)[C@@H](Cc2cccs2)NC(=O)CCC(=O)Nc2ccc(cc2)C[C@@H](C(=O)O)NC1=O [Compound 66] ([d2Thi][Bip]E(OtBu)[Phe(4-NH2)]-OH; linker N-4 via Suc)	> 100
CC(C)(C)OC(=O)CC[C@H]1NC(=O)[C@H](Cc2ccc(-c3ccccc3)cc2)NC(=O)[C@@H](Cc2cccs2)NC(=O)CCC(=O)Nc2ccc(cc2)C[C@@H](C(=O)O)NC1=O [Compound 67] ([d2Thi][Bip][dE](OtBu)[Phe(4-NH2)]-OH; linker N-4 via Suc)	30 to 100

Now from value to compound:

IC50 [µM]	SMILES
> 100	O=C1CCC(=O)N[C@H](Cc2cccs2)C(=O)N[C@@H](Cc2ccc(-c3ccccc3)cc2)C(=O)N[C@@H](CO)C(=O)N[C@H](C(=O)O)Cc2ccc(cc2)N1 [Compound 60] ([d2Thi][Bip]S[Phe(4-NH2)]-OH; linker N-4 via Suc)
> 100	O=C1CCC(=O)N[C@H](Cc2cccs2)C(=O)N[C@@H](Cc2ccc(-c3ccccc3)cc2)C(=O)N[C@H](CO)C(=O)N[C@H](C(=O)O)Cc2ccc(cc2)N1 [Compound 61] ([d2Thi][Bip][dS][Phe(4-NH2)]-OH; linker N-4 via Suc)
> 100	O=C(O)C[C@@H]1NC(=O)[C@H](Cc2ccc(-c3ccccc3)cc2)NC(=O)[C@@H](Cc2cccs2)NC(=O)CCC(=O)Nc2ccc(cc2)C[C@@H](C(=O)O)NC1=O [Compound 64] ([d2Thi][Bip]D[Phe(4-NH2)]-OH; linker N-4 via Suc)
> 100	O=C(O)C[C@H]1NC(=O)[C@H](Cc2ccc(-c3ccccc3)cc2)NC(=O)[C@@H](Cc2cccs2)NC(=O)CCC(=O)Nc2ccc(cc2)C[C@@H](C(=O)O)NC1=O [Compound 65] ([d2Thi][Bip][dD][Phe(4-NH2)]-OH; linker N-4 via Suc)
> 100	O=C(O)CC[C@@H]1NC(=O)[C@H](Cc2ccc(-c3ccccc3)cc2)NC(=O)[C@@H](Cc2cccs2)NC(=O)CCC(=O)Nc2ccc(cc2)C[C@@H](C(=O)O)NC1=O [Compound 68] ([d2Thi][Bip]E[Phe(4-NH2)]-OH; linker N-4 via Suc)

— patent publication US8338565B2, “Macrocyclic compounds for inhibition of tumor necrosis factor alpha” (Ensemble Therapeutics Corporation, priority 2008, dated 2012)
